Source: patent US11339130B1 (Blade Therapeutics, Inc., priority 2016, dated 2022)
Like-named read-outs stand apart in the source and are kept apart here.

Columns and labels:
Human Calpain 9/NS1 = target: T1, Human Calpain 9/NS1 (Homo sapiens, UniProt O14815); assay: Calpain inhibition continuous fluorescence (FRET) assay, Human Calpain 9/NS1; type: biochemical
T1 sequence (O14815 1-690): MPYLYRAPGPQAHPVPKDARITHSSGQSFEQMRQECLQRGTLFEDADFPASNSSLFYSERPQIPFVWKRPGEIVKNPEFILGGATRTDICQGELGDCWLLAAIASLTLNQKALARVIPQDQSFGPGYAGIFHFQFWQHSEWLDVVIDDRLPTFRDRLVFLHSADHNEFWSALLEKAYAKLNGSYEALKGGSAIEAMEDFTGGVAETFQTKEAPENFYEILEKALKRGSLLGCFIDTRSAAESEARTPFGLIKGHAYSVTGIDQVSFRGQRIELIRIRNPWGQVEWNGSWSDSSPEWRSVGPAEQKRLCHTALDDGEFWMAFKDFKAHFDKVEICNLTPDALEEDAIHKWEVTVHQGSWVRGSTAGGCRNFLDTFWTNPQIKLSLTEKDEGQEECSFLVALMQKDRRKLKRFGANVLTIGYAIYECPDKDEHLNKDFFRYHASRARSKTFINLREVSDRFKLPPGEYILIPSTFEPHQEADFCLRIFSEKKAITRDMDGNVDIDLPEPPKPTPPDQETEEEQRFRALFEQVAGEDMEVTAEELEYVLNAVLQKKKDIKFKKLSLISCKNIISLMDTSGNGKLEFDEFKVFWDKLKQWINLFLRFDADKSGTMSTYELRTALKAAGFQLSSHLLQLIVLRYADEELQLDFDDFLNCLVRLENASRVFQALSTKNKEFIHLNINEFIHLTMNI
T1 sequence (P04632 1-268 partner): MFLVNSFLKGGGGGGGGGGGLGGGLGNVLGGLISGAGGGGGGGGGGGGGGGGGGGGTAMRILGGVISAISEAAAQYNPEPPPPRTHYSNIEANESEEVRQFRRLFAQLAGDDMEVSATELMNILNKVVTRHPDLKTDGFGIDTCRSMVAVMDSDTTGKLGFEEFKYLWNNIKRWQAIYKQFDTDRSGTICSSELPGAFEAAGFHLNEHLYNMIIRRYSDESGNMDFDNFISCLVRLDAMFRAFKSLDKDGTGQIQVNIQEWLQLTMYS
Procedure, shortened: (§1)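 Fluorescence increase from the cleaved 5-FAM/QXL 520 substrate, read at 490/520 nm, gave activity. Calcium was supplied with the substrate to activate the enzyme in situ after a 25C enzyme-inhibitor preincubation, and IC50s were fit from initial slopes.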

[1] = system: Calpain activity in SH-SY5Y cells; assay: SH-SY5Y + AMC fluorescence assay (Suc-LLVY-AMC substrate); type: cell-based; settings: read-out: SH-SY5Y + AMC IC50
[2] = system: Calpain activity in SH-SY5Y cells (SBDP-150); assay: SH-SY5Y Spectrin western blot assay (SBDP-150 breakdown product, A23187-induced); type: cell-based; settings: Homo sapiens, read-out: SH-SY5Y Spectrin IC50
Human Calpain 1/NS1 = target: T2, Human Calpain 1/NS1 (Homo sapiens, UniProt P07384); assay: Calpain inhibition continuous fluorescence (FRET) assay, Human Calpain 1/NS1; type: biochemical
T2 sequence (P07384 1-714): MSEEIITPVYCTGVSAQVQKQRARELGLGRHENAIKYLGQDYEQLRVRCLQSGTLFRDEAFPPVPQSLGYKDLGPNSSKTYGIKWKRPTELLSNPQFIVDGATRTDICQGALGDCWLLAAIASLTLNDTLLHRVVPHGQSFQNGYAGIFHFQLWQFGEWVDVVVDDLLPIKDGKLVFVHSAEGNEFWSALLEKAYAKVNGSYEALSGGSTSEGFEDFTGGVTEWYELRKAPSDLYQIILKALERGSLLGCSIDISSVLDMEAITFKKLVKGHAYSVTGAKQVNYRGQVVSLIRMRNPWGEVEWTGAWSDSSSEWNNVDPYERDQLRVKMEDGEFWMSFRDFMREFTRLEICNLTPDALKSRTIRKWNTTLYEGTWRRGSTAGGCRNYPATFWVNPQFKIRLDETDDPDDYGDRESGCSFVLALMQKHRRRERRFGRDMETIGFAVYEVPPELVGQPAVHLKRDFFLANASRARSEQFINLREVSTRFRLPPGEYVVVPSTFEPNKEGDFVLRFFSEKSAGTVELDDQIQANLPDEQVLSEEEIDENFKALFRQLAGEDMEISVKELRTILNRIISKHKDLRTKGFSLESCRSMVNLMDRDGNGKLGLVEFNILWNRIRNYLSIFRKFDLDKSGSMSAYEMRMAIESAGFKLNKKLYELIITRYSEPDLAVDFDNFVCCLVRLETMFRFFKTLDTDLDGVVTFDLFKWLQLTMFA
T2 sequence (P04632 1-268 partner): T1 sequence (P04632 1-268 partner)
Procedure, shortened: as §1

Human Calpain 2/NS1 = target: T3, Human Calpain 2/NS1 (Homo sapiens, UniProt P17655); assay: Calpain inhibition continuous fluorescence (FRET) assay, Human Calpain 2/NS1; type: biochemical
T3 sequence (P17655 1-700): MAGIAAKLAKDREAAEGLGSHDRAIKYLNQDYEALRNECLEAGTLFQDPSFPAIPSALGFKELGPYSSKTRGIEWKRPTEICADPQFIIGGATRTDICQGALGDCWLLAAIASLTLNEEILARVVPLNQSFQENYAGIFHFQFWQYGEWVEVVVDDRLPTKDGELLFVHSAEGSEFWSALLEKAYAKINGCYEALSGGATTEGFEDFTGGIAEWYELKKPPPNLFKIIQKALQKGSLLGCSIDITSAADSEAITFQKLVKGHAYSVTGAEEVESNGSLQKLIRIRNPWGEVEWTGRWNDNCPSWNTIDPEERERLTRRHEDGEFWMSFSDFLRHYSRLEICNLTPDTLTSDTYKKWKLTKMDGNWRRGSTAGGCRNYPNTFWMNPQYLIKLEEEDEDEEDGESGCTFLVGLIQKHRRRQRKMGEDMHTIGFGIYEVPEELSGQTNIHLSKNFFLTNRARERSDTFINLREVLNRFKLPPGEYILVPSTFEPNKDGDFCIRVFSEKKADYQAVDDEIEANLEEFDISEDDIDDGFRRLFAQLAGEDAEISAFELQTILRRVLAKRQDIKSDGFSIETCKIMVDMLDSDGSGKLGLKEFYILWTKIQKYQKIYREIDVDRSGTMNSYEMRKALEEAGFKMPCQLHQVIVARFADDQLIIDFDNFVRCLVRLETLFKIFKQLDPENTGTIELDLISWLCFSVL
T3 sequence (P04632 1-268 partner): T1 sequence (P04632 1-268 partner)
Procedure, shortened: as §1

[3] = read-out: Human Calpain 9/NS1 IC50
[4] = SH-SY5Y cells, A23187-induced SBDP-150, western blot
[5] = read-out: Human Calpain 1/NS1 IC50
[6] = read-out: Human Calpain 2/NS1 IC50

IC50 (Human Calpain 9/NS1; [3])	IC50 [1]	IC50 [2, 4]	IC50 (Human Calpain 1/NS1; [5])	IC50 (Human Calpain 2/NS1; [6])	SMILES	IC50 (Human Calpain 9/NS1)	IC50 ([2]; SH-SY5Y)	IC50 (Human Calpain 1/NS1)	IC50 (Human Calpain 2/NS1)
< 3 µM	< 10 µM	< 10 µM	< 3 µM	< 3 µM	CN(C)C(=O)CNC(=O)C(=O)[C@H](Cc1ccccc1)NC(=O)c1cn(C)nc1-c1ccccc1 [Compound 337, (S)—N-(4-((2-(dimethylamino)-2-oxoethyl)amino)-3,4-dioxo-1-phenylbutan-2-yl)-1-methyl-3-phenyl-1H-pyrazole-4-carboxamide]				
< 3 µM	< 10 µM	> 25 µM	< 3 µM	< 3 µM	Cn1cc(C(=O)N[C@@H](Cc2ccccc2)C(=O)C(=O)NCCC(N)=O)c(-c2ccccc2)n1 [Compound 338, (S)—N-(4-((3-amino-3-oxopropyl)amino)-3,4-dioxo-1-phenylbutan-2-yl)-1-methyl-3-phenyl-1H-pyrazole-4-carboxamide]				
< 3 µM	10 to 25 µM	> 25 µM	< 3 µM	< 3 µM	Cn1cc(C(=O)N[C@@H](Cc2ccccc2)C(=O)C(=O)NCC(N)=O)c(-c2ccccc2)n1 [Compound 339, (S)—N-(4-((2-amino-2-oxoethyl)amino)-3,4-dioxo-1-phenylbutan-2-yl)-1-methyl-3-phenyl-1H-pyrazole-4-carboxamide]				
3 to 10 µM	10 to 25 µM	> 25 µM	< 3 µM	< 3 µM	Cc1cc(C(=O)N[C@H](C=O)Cc2ccccc2)n(-c2ncccn2)n1 [Compound 341, (S)-3-methyl-N-(1-oxo-3-phenylpropan-2-yl)-1-(pyrimidin-2-yl)-1H-pyrazole-5-carboxamide]				
< 3 µM	10 to 25 µM	10 to 25 µM	< 3 µM	< 3 µM	NC(=O)C(=O)C(Cc1ccccc1)NC(=O)c1cc(C(F)(F)C(F)(F)F)nn1-c1ccccc1 (stereo not drawn) [Compound 342, N-(4-amino-3,4-dioxo-1-phenylbutan-2-yl)-3-(perfluoroethyl)-1-phenyl-1H-pyrazole-5-carboxamide]				
< 3 µM	> 25 µM	10 to 25 µM	< 3 µM	< 3 µM	NC(=O)C(=O)C(Cc1ccccc1)NC(=O)c1c(Cl)cnn1-c1ncccn1 (stereo not drawn) [Compound 347, N-(4-amino-3,4-dioxo-1-phenylbutan-2-yl)-4-chloro-1-(pyrimidin-2-yl)-1H-pyrazole-5-carb oxamide]				
< 3 µM	< 10 µM	> 25 µM	< 3 µM	< 3 µM	Cc1cc(C(=O)NC(Cc2ccccc2)C(=O)C(N)=O)n(-c2ncccc2F)n1 (stereo not drawn) [Compound 348, N-(4-amino-3,4-dioxo-1-phenylbutan-2-yl)-1-(3-fluoropyridin-2-yl)-3-methyl-1H-pyrazole-5-carboxamide]				
< 3 µM	< 10 µM	> 25 µM	< 3 µM	< 3 µM	NC(=O)C(=O)C(Cc1ccccc1)NC(=O)c1cc(C(F)(F)F)nn1-c1ncccn1 (stereo not drawn) [Compound 349, N-(4-amino-3,4-dioxo-1-phenylbutan-2-yl)-1-(pyrimidin-2-yl)-3-(trifluoromethyl)-1H-pyrazole-5-carboxamide]				
< 3 µM	< 10 µM	10 to 25 µM	< 3 µM	< 3 µM	NC(=O)C(=O)C(Cc1ccccc1)NC(=O)c1cc(Cl)nn1-c1ncccn1 (stereo not drawn) [Compound 350, N-(4-amino-3,4-dioxo-1-phenylbutan-2-yl)-3-chloro-1-(pyrimidin-2-yl)-1H-pyrazole-5-carb oxamide]				
< 3 µM	< 10 µM	10 to 25 µM	< 3 µM	< 3 µM	Cc1cc(C(=O)NC(Cc2ccccc2)C(=O)C(N)=O)n(-c2ncccn2)n1 (stereo not drawn) [Compound 351, N-(4-amino-3,4-dioxo-1-phenylbutan-2-yl)-3-methyl-1-(pyrimidin-2-yl)-1H-pyrazole-5-carb oxamide]				
< 3 µM	10 to 25 µM	> 25 µM	< 3 µM	< 3 µM	Cc1cc(C(=O)NC(Cc2ccccc2)C(=O)C(N)=O)n(-c2ccnc(C3CC3)n2)n1 (stereo not drawn) [Compound 352, N-(4-amino-3,4-dioxo-1-phenylbutan-2-yl)-1-(2-cyclopropylpyrimidin-4-yl)-3-methyl-1H-pyrazole-5-carboxamide]				
< 3 µM	> 25 µM	10 to 25 µM	< 3 µM	< 3 µM	Cc1nc(-c2cccc(F)c2)c(C(=O)N[C@H](C=O)Cc2ccccc2)o1 [Compound 353, (S)-4-(3-fluorophenyl)-2-methyl-N-(1-oxo-3-phenylpropan-2-yl)oxazole-5-carboxamide]				
< 3 µM	< 10 µM	< 10 µM	< 3 µM	< 3 µM	Cc1nc(-c2ccccc2)c(C(=O)N[C@@H](Cc2ccc(O)cc2)C(=O)C(N)=O)o1 [Compound 354]				
< 3 µM	> 25 µM	> 25 µM	< 3 µM	< 3 µM	Cc1nc(-c2cnc3ccccc3n2)c(C(=O)NC(Cc2ccccc2)C(=O)C(N)=O)o1 (stereo not drawn) [Compound 356, N-(4-amino-3,4-dioxo-1-phenylbutan-2-yl)-2-methyl-4-(quinoxalin-2-yl)oxazole-5-carboxamide]				

SMILES	IC50 (Human Calpain 9/NS1; [3])	IC50 [1]	IC50 [2, 4]	IC50 (Human Calpain 1/NS1; [5])	IC50 (Human Calpain 2/NS1; [6])	IC50 (Human Calpain 9/NS1)	IC50 ([2]; SH-SY5Y)	IC50 (Human Calpain 1/NS1)	IC50 (Human Calpain 2/NS1)
Cc1cc(C(=O)N[C@@H](Cc2ccccc2)C(=O)C(N)=O)n(-c2cccc(CNC(=O)Oc3ccccc3)c2)n1 [Compound 344, Phenyl (S)-(3-(5-((4-amino-3,4-dioxo-1-phenylbutan-2-yl)carbamoyl)-3-methyl-1H-pyrazol-1-yl)benzyl)carbamate]		10 to 25 µM				< 3 µM	> 25 µM	< 3 µM	< 3 µM
